Read-outs that look alike come from different tables or passages of the source.
Test system: ring stage parasites
Test: Parasite growth potency assay, 72 hours, LDH readout
Format: cell-based
Conditions: parasite growth measured by LDH assay after 72 hours at 37° C., 0.7% rings, 2% haematocrit, read-out: EC50
Method in brief: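 Parasite growth was quantified by LDH assay after a −80 °C freeze-thaw. Before that, compound was incubated for 72 h at 37 °C under humidified gas with ring-stage cultures adjusted to 0.7% parasitemia and 2% haematocrit in serum- and albumax-supplemented RPMI-Hepes.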

| Structure (SMILES) | EC50 (72 h) [nM] | EC50 [nM] |
| --- | --- | --- |
| CCC1(CC)CC(=O)N(Cc2cccc(C(=O)N[C@H]3CC(C)(C)Oc4cccc(F)c43)c2)C(=N)N1 (stereo in doubt) [Example 94A, [4,4-diethyl-1-[[3-[(5-fluoro-2,2-dimethyl-chroman-4-yl)carbamoyl]phenyl]methyl]-6-oxo-hexahydropyrimidin-2-ylidene]ammonium; 2,2,2-trifluoroacetate] | 0.4 | – |
| CCC1(CC)NC(=N)N(Cc2cc(F)cc(C(=O)N[C@H]3CCOc4ccccc43)c2)C(=O)C1C (stereo partly drawn) [Example 42, [1-[[3-[[(4S)-chroman-4-yl]carbamoyl]-5-fluoro-phenyl]methyl]-4,4-diethyl-5-methyl-6-oxo-hexahydropyrimidin-2-ylidene]ammonium; 2,2,2-trifluoroacetate] | 10.3 | – |
| CCC1(CC)CC(=O)N([C@H](CCOC)c2cccc(C(=O)NC3c4ccccc4C(F)(F)C3O)c2)C(=N)N1 (stereo partly drawn) [Example 189B, [1-[(1R)-1-[3-[(3,3-difluoro-2-hydroxy-indan-1-yl)carbamoyl]phenyl]-3-methoxy-propyl]-4,4-diethyl-6-oxo-hexahydropyrimidin-2-ylidene]ammonium; chloride] | – | 292 |
| CCC1(CC)CC(=O)N([C@H](COCCOC)c2cccc(C(=O)N[C@@H]3c4ccccc4OC(C)(C)[C@H]3O)c2)C(=N)N1 [Example 139, [4,4-diethyl-1-[(1S)-1-[3-[[(3S,4R)-3-hydroxy-2,2-dimethyl-chroman-4-yl]carbamoyl]phenyl]-2-(2-methoxyethoxy)ethyl]-6-oxo-hexahydropyrimidin-2-ylidene]ammonium; 2,2,2-trifluoroacetate] | 1.5 | – |
| CCC1(CC)CC(=O)N(Cc2cccc(C(=O)N[C@@H]3c4ccccc4OCC3(C)C)c2)C(=N)N1 (stereo in doubt) [Example 216, 3-[(4,4-diethyl-2-imino-6-oxo-hexahydropyrimidin-1-yl)methyl]-N-(3,3-dimethylchroman-4-yl)benzamide] | 0.5 | – |
| CCC1(CC)CC(=O)N(C(CC(O)C(F)(F)F)c2cccc(C(=O)N[C@@H]3c4ccccc4C[C@H]3O)c2)C(=N)N1 (single isomer, unassigned) [Example 236B] | – | 0.96 |
| CCC1(CC)CC(=O)N([C@H](CCOC)c2cc(F)cc(C(=O)N[C@@H]3c4ccccc4OC(C)(C)[C@H]3O)c2)C(=N)N1 (stereo in doubt) [Example 129A, [4,4-diethyl-1-[1-[3-fluoro-5-[(3-hydroxy-2,2-dimethyl-chroman-4-yl)carbamoyl]phenyl]-3-methoxy-propyl]-6-oxo-hexahydropyrimidin-2-ylidene]ammonium; 2,2,2-trifluoroacetate] | 0.8 | – |
| COCC[C@H](c1cccc(C(=O)N[C@@H]2c3ccccc3C[C@]2(C)O)c1)N1C(=N)NC(C)(C)CC1=O [Example 166B, N-[(1R,2S)-2-hydroxy-2-methyl-indan-1-yl]-3-[(1R)-1-(2-imino-4,4-dimethyl-6-oxo-hexahydropyrimidin-1-yl)-3-methoxy-propyl]benzamide] | – | 17.6 |
| C#CCCC(c1cccc(C(=O)N[C@@H]2c3ccccc3C[C@H]2O)c1)N1C(=N)NC(CC)(CC)CC1=O (stereo in doubt) [Example 221, 3-[(1S)-1-(4,4-diethyl-2-imino-6-oxo-hexahydropyrimidin-1-yl)pent-4-ynyl]-N-[(1R,2R)-2-hydroxyindan-1-yl]benzamide] | 35.4 | – |
| CC(C)[C@]1(C)CC(=O)N([C@H](c2ccccc2)c2cccc(C(=O)N[C@H]3CCOc4ccccc43)c2)C(=N)N1 [Example 9A, [(4S)-1-[(R)-[3-[[(4S)-chroman-4-yl]carbamoyl]phenyl]-phenyl-methyl]-4-isopropyl-4-methyl-6-oxo-hexahydropyrimidin-2-ylidene]ammonium; 2,2,2-trifluoroacetate] | 0.5 | – |
| CCC1(CC)CC(=O)N(C(CCOC)c2ccc(C(F)(F)F)c(C(=O)N[C@@H]3c4ccccc4C[C@H]3O)c2)C(=N)N1 (stereo partly drawn) [Example 239, 5-[1-(4,4-diethyl-2-imino-6-oxo-hexahydropyrimidin-1-yl)-3-methoxy-propyl]-N-[(1R,2R)-2-hydroxyindan-1-yl]-2-(trifluoromethyl)benzamide] | 3.6 | – |

From patent US12629374B2, “Antimalarial agents” (Merck Sharp & Dohme LLC, priority 2020, dated 2026)
